8 molecules from ChEMBL document CHEMBL3639015, “Bicyclic compound or salt thereof” (2014) can be followed below.

This assay has as its target Heat shock protein HSP 90-alpha (Homo sapiens, UniProt P07900). Nature of the assay: AlphaScreen Competitive Assay: HSP90-binding activity was determined by an AlphaScreen competitive assay system. The purified HSP90 solution was diluted with a binding buffer (50 mM Tris-HCl (pH 7.5), 150 mM NaCl, 0.1% Triton-X 100, 1 mM DTT, 0.1% BSA) and added to a 384-well plate (#3673, Corning Inc.) containing test substances. After reaction at room temperature for 2 hours, biotinylated geldanamycin was added thereto at a concentration of 40 nM/well and further reacted for 1 hour. Detection mix (20 mM HEPES-KOH (pH 7.5), 0.5% BSA, 0.04 mg/mL Nickel Chelate Acceptor beads, 0.04 mg/mL Streptavidin-coated Donor beads) (#6760619C, PerkinElmer, Inc.) was added to each well in an amount equal to the amount of the reaction solution and reacted at room temperature for 1 hour in the dark. Then, fluorescence intensity was measured using Multilabel Plate Reader EnVision (PerkinElmer, Inc.).
In general, IC50 refers to the concentration that gives 50% inhibition. With `CCNc1cc(-c2nccc3c(-n4cnc(-c5cnn(C)c5)c4)cccc23)ccc1C(N)=O`, the IC50 stood at 190 nM. For the molecule `NC(=O)c1ccc(-c2nccc3c(-c4cncc(N)c4)cccc23)cc1NC1CCC(O)CC1` (stereo not drawn), the IC50 is 60 nM.

Take `NCC(=O)OC1CCC(Nc2cc(-c3nccc4c(-c5cnc6ccccc6c5)cccc34)ccc2C(N)=O)CC1` (stereo not drawn): the IC50 worked out at 450 nM. Turning to `CC(C)Cn1cc(-c2cn(-c3cccc4c(-c5ccc(C(N)=O)c(NC6CCC(O)CC6)c5)nccc34)cn2)cn1` (stereo not drawn), the IC50 stood at 280 nM. In the case of `Cn1cc(-c2cn(-c3cccc4c(-c5ccc(C(N)=O)c(NC6CCCCCC6)c5)nccc34)cn2)cn1`, the IC50 is 270 nM.

As to `Cn1cc(-c2cn(-c3cccc4c(-c5ccc(C(N)=O)c(NCC6CC6)c5)cc(C(F)(F)F)nc34)cn2)cn1`, the IC50 came to 220 nM.

Consider `CCNc1cc(-c2cc(C(F)(F)F)nc3c(-n4cnc(-c5cnn(C(F)F)c5)c4)cccc23)ccc1C(N)=O`, for which the IC50 stood at 230 nM. Take `CC(C)(C)Nc1cc(-c2cc(C(F)(F)F)nc3c(-n4cnc(-c5ccccc5)c4)cccc23)ccc1C(N)=O`: the half-maximal inhibitory concentration (IC50) was 3390 nM.
